# Laboratory results reported in publication PMC7883289, “Synthesis of Paeonol-Ozagrel Conjugate: Structure Characterization and In Vivo Anti-Ischemic Stroke potential” (Frontiers in Pharmacology, 2021).
# Legend:
# [1] = test system: middle cerebral artery occlusion (MCAO) rats; experiment: Measurement of infarct volume by TTC staining in MCAO rats; format: in vivo; details: 24 h after reperfusion, single iv dose: paeonol and OS 3 mg/kg, POC 4.5 mg/kg, n = 6
# Experimental: Male Sprague Dawley (SD) rats weighing among 220 g-230 g (Anhui Medicine University, Hefei, China; certificate number: SCXK20190,003) were housed under ad libitum access to food and water with a standardized light-dark cycle condition (25 ± 2°C, 12-hour light/dark cycle). All the experimental protocols were performed in accordance with the Institutional Animal Care and Use Committee of Anhui University of Chinese Medicine (Animal ethics number: AHUCM-rats-2019001). We used the minimal number of study animals (n = 6 rats in each group for different experiments). The rats were fastened upon the operating table in a supine position after being anesthetized with 2% pelltobarbitalum natricum (50 mg/kg). After disinfection of the skin within close proximity of the operative region, the right common carotid artery (CCA), external carotid artery (ECA) and internal carotid artery (ICA) were exposed with blunt dissection. The CCA was temporarily ligated and the ECA were permanently ligated ([Liu et al., 2016]). A nylon monofilament surgical thread was introduced into the ICA to block the MCA when the blunted distal end met resistance. After 2 h of occlusion, reperfusion was accomplished to restore blood supply to the MCA area by removing the filament ([Li et al., 2009]; [Zhai et al., 2017]). […] Rats were split randomly into five groups, including the sham, model, paeonol, OS and POC group. After 2 h of reperfusion, the paeonol and OS groups received the drug by intravenous injection at a single dose of 3 mg/kg ([Imamura et al., 2003]; [Park et al., 2010]; [Gai et al., 2019]), which the doses of paeonol and OS uesd previously were benificial in rats and the dose of OS is within the clinical dose range. […] Cerebral infarction volume was determined using TTC staining. […] The infarction and total brain volume were quantified using ImageJ software. The infarct volume was calculated as a ratio of the infarcted tissue relative to the total area of the whole-brain coronal section ([Ye and Gao, 2008]; [Katayama et al., 2017]). […]
# [2] = test system: middle cerebral artery occlusion (MCAO) rats; experiment: Evaluation of neurological deficit (Longa score) in MCAO rats; format: in vivo; details: 24 h after reperfusion, single iv dose 2 h after reperfusion: paeonol and OS 3 mg/kg, POC 4.5 mg/kg, n = 6
# Experimental: Male Sprague Dawley (SD) rats weighing among 220 g-230 g (Anhui Medicine University, Hefei, China; certificate number: SCXK20190,003) were housed under ad libitum access to food and water with a standardized light-dark cycle condition (25 ± 2°C, 12-hour light/dark cycle). All the experimental protocols were performed in accordance with the Institutional Animal Care and Use Committee of Anhui University of Chinese Medicine (Animal ethics number: AHUCM-rats-2019001). We used the minimal number of study animals (n = 6 rats in each group for different experiments). The rats were fastened upon the operating table in a supine position after being anesthetized with 2% pelltobarbitalum natricum (50 mg/kg). After disinfection of the skin within close proximity of the operative region, the right common carotid artery (CCA), external carotid artery (ECA) and internal carotid artery (ICA) were exposed with blunt dissection. The CCA was temporarily ligated and the ECA were permanently ligated ([Liu et al., 2016]). A nylon monofilament surgical thread was introduced into the ICA to block the MCA when the blunted distal end met resistance. After 2 h of occlusion, reperfusion was accomplished to restore blood supply to the MCA area by removing the filament ([Li et al., 2009]; [Zhai et al., 2017]). […] Rats were split randomly into five groups, including the sham, model, paeonol, OS and POC group. […] Neurological deficit was evaluated 24 h after reperfusion (blinded to experimenters). […] The rating score was assessed by the following standard: no neurological deficit, 0; failure to extend left forepaw fully, one; spontaneous circling to the left, two; falling to the left, three; inability to walk spontaneously and coma of consciousness, 4. […] Neurological scores for each group were calculated using six rats according to a sample size calculation (α err prob = 0.05, 1-β err prob = 0.95) and references ([Katayama et al., 2017]; [[…] al., 2019]; [Zheng et al., 2019]).
SMILES,cerebral infarction volume percentage [1],"neurological deficits score (Longa, 0-4) [2]"
"O=C([O-])/C=C/c1ccc(Cn2ccnc2)cc1.[Na+] [OS, Ozagrel sodium]",18.68% ± 1.35,2.00 ± 0.63
COc1ccc(C(C)=O)c(O)c1 [paeonol],20.87% ± 1.43,2.50 ± 0.55
